Data published in patent publication US20260158014A1, “METHODS OF ADMINISTERING VOXELOTOR” (Global Blood Therapeutics, Inc., priority 2021, published 2026).

Molecular target: CYP2B6 (Homo sapiens, UniProt P20813)
Experiment: In vitro CYP enzyme study
Type: in vitro ADME

Chain of CYP2B6 (P20813 whole entry, species assumed): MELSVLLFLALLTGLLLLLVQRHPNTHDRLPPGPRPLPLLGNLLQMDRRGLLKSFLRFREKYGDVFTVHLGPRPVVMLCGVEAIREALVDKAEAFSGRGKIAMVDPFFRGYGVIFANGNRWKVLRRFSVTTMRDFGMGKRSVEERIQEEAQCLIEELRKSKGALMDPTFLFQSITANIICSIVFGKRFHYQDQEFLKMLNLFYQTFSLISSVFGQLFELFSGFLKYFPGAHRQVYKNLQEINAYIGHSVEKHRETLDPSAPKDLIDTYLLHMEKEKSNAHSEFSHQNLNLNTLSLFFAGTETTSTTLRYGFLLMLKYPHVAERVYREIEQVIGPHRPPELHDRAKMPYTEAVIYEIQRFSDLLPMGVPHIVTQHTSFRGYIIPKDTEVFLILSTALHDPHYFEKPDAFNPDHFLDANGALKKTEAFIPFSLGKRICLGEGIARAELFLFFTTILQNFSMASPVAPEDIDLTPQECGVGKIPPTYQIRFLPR

**Q.** With `CC(C)n1nccc1-c1ncccc1COc1cccc(O)c1C=O` [voxelotor, 2-hydroxy-6-((2-(1-isopropyl-1H-pyrazol-5-yl)pyridin-3-yl)methoxy)benzaldehyde] as the compound, how does the CYP2B6 induction read?
**A.** inducer

**Q.** What about the CYP2B6 inhibition of the same compound?
**A.** reversible and time-dependent inhibitor
